Results: US20100075343A1, “NOVEL PEPTIDES” (priority 2007, published 2010)

Assays:
[1] = system: uterus of apoaequorin-expressing mice; conditions: final concentration of 1 μmol/L; reported in WO02/010371; cited from earlier work
[2] = system: adrenal glands of apoaequorin-expressing mice; conditions: final concentration of 1 μmol/L; reported in WO02/010371; cited from earlier work
[3] = system: blood vessels of apoaequorin-expressing mice; conditions: final concentration of 1 μmol/L; reported in WO02/010371; cited from earlier work
[4] = system: antiserum against ESPGPERVW peptide of human VGF; type: binding; conditions: 1, 10, and 100 pmol of the peptides
Experimental: Namely, to 100 μL of antiserum diluted 9×10^5 folds with RIA buffer, 100 μL of RIA buffer containing a fixed amount of [^125I]-labeled Peptide 1 (approximately 20000 cpm, 500-550 Bq, approximately 9 fmol in terms of peptide amount) and 100 μL of RIA buffer solutions each containing a sequentially diluted VGF-derived peptide were added, this was incubated at 4° C. for 40 hours, and the labeled Peptide 1 and VGF-derived peptide were competitively bound to the antibody in the antiserum. As controls, reactions that use RIA buffer instead of the antiserum to measure non-specific binding, and reactions that use RIA buffer instead of VGF-derived peptide solutions to measure the maximum binding level were carried out. Reactions for non-specific binding were performed in quadruplicates, and the other reactions were performed in duplicates, and for each of the reactants, the immune complex was precipitated as in the above-mentioned antibody titer measurements, and its radioactivity (cpm) was measured. The average radioactivity of non-specific binding reaction is defined as non-specific binding level N, the radioactivity value for each VGF-derived peptide addition reaction is defined as Y, and the radioactivity value of maximum binding reaction is defined as Z. The percentage ratio (B/B0) of antiserum specific binding level (B) with peptide addition to the maximum binding level (B0), was determined using the following formula.
B/B0(%)={(Y−N)/(Z−N)}×100
Accordingly, the amount of peptide that achieves 50% B/B0, more specifically, the amount of peptide that yields 50% inhibition of the maximum binding level, was used as an indicator of the peptide binding activity to the antiserum.

[5] = system: rats fed with high-calorie diets; conditions: administered into the rat ventricle, Non-patent Document 6; cited from earlier work
male rats = conditions: direct administration to the PVN of male rats; Non-patent Document 7; cited from earlier work
[6] = system: spinal cord of apoaequorin-expressing mice; experiment: Intracellular calcium ion increase (aequorin luminescence), spinal cord; type: cell-based, mouse; conditions: peptide at final concentrations of 1 μmol/L and 5 μmol/L
Experimental: (§1) A hypothalamus, pituitary gland, kidney, heart, blood vessel, or a portion of brain tissue is collected from transgenic mice systemically expressing apoaequorin (WO02/010371) produced by introducing an apoaequorin gene expression vector into fertilized eggs. The obtained hypothalamus, pituitary gland, kidney, heart, blood vessel, or brain tissue is cut finely into pieces, suspended in a medium containing coelenterazine, and then incubated to incorporate coelenterazine into the cells to form aequorin (a complex of apoaequorin and coelenterazine). Since aequorin luminesces upon binding to intracellular calcium ions, the relative luminescence level in cells before and after addition of a medium containing the peptide or a pharmaceutically acceptable salt thereof is measured in a luminometer every second over time and is used as an indicator of intracellular calcium ion concentration. Increase in the relative luminescence level due to addition of the peptide or pharmaceutically acceptable salt thereof confirms that the peptide or pharmaceutically acceptable salt thereof has the activity to increase intracellular calcium ion concentration. […]

[7] = system: cardiac cells of the apoaequorin-expressing mice; experiment: Intracellular calcium ion increase (aequorin luminescence), heart; type: cell-based, mouse
Experimental: (§2) A hypothalamus, pituitary gland, kidney, heart, blood vessel, or a portion of brain tissue is collected from transgenic mice systemically expressing apoaequorin (WO02/010371) produced by introducing an apoaequorin gene expression vector into fertilized eggs. The obtained hypothalamus, pituitary gland, kidney, heart, blood vessel, or brain tissue is cut finely into pieces, suspended in a medium containing coelenterazine, and then incubated to incorporate coelenterazine into the cells to form aequorin (a complex of apoaequorin and coelenterazine). Since aequorin luminesces upon binding to intracellular calcium ions, the relative luminescence level in cells before and after addition of a medium containing the peptide or a pharmaceutically acceptable salt thereof is measured in a luminometer every second over time and is used as an indicator of intracellular calcium ion concentration. Increase in the relative luminescence level due to addition of the peptide or pharmaceutically acceptable salt thereof confirms that the peptide or pharmaceutically acceptable salt thereof has the activity to increase intracellular calcium ion concentration.
(§3) Whether Peptides 1 to 8 synthesized in Example 2 have the activity of increasing intracellular calcium ion concentration was investigated using the organs of transgenic mice introduced with the apoaequorin gene and systemically expressing apoaequorin (hereinafter referred to as apoaequorin-expressing mice). In apoaequorin-expressing mouse cells, light is emitted when apoaequorin binds to a calcium ion in the presence of the luminescent substrate coelenterazine and thus the intracellular calcium ion concentration can be monitored. Patent Document (WO02/010371) discloses the method for producing apoaequorin-expressing mice, method for evaluating biologically active substances that use biological samples derived from the mice, and experimental results of evaluating biologically active peptides using the mouse organs as shown below. […] Therefore, apoaequorin-expressing mice can be used in the evaluation of the physiological activities of novel peptides.
(§4) Apoaequorin-expressing mice were produced according to the method disclosed in Reference Example 4 of Patent Document (WO02/010371). The apoaequorin-expressing mice were sacrificed, individual organs including thymus, hypothalamus, spleen, bone, aorta, heart, kidney, adrenal gland, pancreas, pituitary gland, uterus, medulla oblongata, and spinal cord were removed; and each of the organs was cut into small cubes of approximately 1 to 2 mm^3. Next, in 5-mL tubes (Rohren-Tubes; manufactured by Sarstedt, No. 55.476), three portions of each of the prepared organs were added to 50 μL of a 10 μmol/L solution of coelenterazine (manufactured by Molecular Probes) dissolved in RPMI 1640 medium, and these were cultured at 37° C. for three hours. After culturing, RPMI 1640 medium was added, and then Peptides 1 to 5 dissolved in RPMI 1640 medium were added 25 seconds after the addition of RPMI 1640 until each peptide had final concentrations of 1 μmol/L and of 5 μmol/L, and the relative luminescence levels were measured every second immediately after the addition of RPMI 1640 medium by using a luminometer (AutoLumat LB953, manufactured by Berthold).

[8] = system: uterus of apoaequorin-expressing mice; experiment: Intracellular calcium ion increase (aequorin luminescence), uterus; type: cell-based, mouse; conditions: peptide at final concentrations of 1 μmol/L and 5 μmol/L
Experimental: as §1

[9] = system: hypothalamic cells of the apoaequorin-expressing mice; experiment: Intracellular calcium ion increase (aequorin luminescence), hypothalamus; type: cell-based, mouse
Procedure, shortened: (§5)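 Organ pieces (~1–2 mm^3) from mice transgenic for systemic apoaequorin loaded with 10 μmol/L coelenterazine in RPMI 1640 for 3 h at 37 °C. Peptide added 25 s after medium to final 1 or 5 μmol/L; relative luminescence read every second as an indicator of intracellular Ca2+ rise.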

[10] = system: pituitary cells of the apoaequorin-expressing mice; experiment: Intracellular calcium ion increase (aequorin luminescence), pituitary gland; type: cell-based, mouse
Procedure, shortened: as §5

[11] = system: medulla oblongata of apoaequorin-expressing mice; experiment: Intracellular calcium ion increase (aequorin luminescence), medulla oblongata; type: cell-based, mouse; conditions: peptide at final concentrations of 1 μmol/L and 5 μmol/L
Experimental: as §2, §3, §4

[12] = system: spleen of apoaequorin-expressing mice; experiment: Intracellular calcium ion increase (aequorin luminescence), spleen; type: cell-based, mouse; conditions: peptide at final concentrations of 1 μmol/L and 5 μmol/L
Experimental: as §2, §3
Apoaequorin-expressing mice were produced according to the method disclosed in Reference Example 4 of Patent Document (WO02/010371). […] After culturing, RPMI 1640 medium was added, and then Peptides 1 to 5 dissolved in RPMI 1640 medium were added 25 seconds after the addition of RPMI 1640 until each peptide had final concentrations of 1 μmol/L and of 5 μmol/L, and the relative luminescence levels were measured every second immediately after the addition of RPMI 1640 medium by using a luminometer (AutoLumat LB953, manufactured by Berthold).

[13] = system: kidney cells of the apoaequorin-expressing mice; experiment: Intracellular calcium ion increase (aequorin luminescence), kidney; type: cell-based, mouse
Experimental: as §2, §3, §4

[14] = 5 μmol/L peptide, added at 25 seconds
[15] = peptide at final concentrations of 1 μmol/L and 5 μmol/L

In the case of “angiotensin II (DRVYIHPF) [non-VGF peptide]”, the luminescence in uterus [1] is given as “strong luminescence was observed”, the “luminescence in adrenal glands” value [2] is given as “strong luminescence was observed” and the “luminescence in blood vessels” value [3] is given as “strong luminescence was observed”. The “inhibition of binding of the antiserum to labeled peptide” value [4] was “none of these peptides showed inhibition”.

For “rat VGF (556-576): known peptide, positions 556-576 of the rat VGF amino acid sequence”, the “suppression of weight gain” value [5] is given as “activity of suppressing weight gain” and the erection inducing activity (male rats) is given as “this activity was not observed”.

With “Peptide 5: amino acid sequence at position 211 to 236 in rat VGF (ASWGEFQARVPERAPLPPSVPSQFQA; synthetic Peptide 5, VGF-related peptide, rat VGF positions 211-236)” the “luminescence (intracellular calcium ion increase) in spinal cord” value [6] was “luminescence was observed”, the “increase of intracellular calcium concentration in cardiac cells (RLU per second)” value [7, 14] was “increase of intracellular calcium concentration” and the “luminescence (intracellular calcium ion increase) in heart” value [7, 15] was “luminescence was observed”. For the same substance, the “luminescence (intracellular calcium ion increase) in uterus” value [8] was “luminescence was observed”, the “increase of intracellular calcium concentration in hypothalamic cells (RLU per second)” value [9, 14] was “increase of intracellular calcium concentration” and the “luminescence (intracellular calcium ion increase) in hypothalamus” value [9, 15] was “luminescence was observed”. For the same substance, the “increase of intracellular calcium concentration in pituitary cells (RLU per second)” value [10, 14] was “increase of intracellular calcium concentration”, the “luminescence (intracellular calcium ion increase) in pituitary gland” value [10, 15] was “luminescence was observed” and the “luminescence (intracellular calcium ion increase) in medulla oblongata” value [11] was “luminescence was observed”. For the same substance, the “luminescence (intracellular calcium ion increase) in spleen” value [12] was “luminescence was observed”, the “increase of intracellular calcium concentration in kidney cells (RLU per second)” value ([13]; 1 μmol/L peptide, added at 25 seconds) was “increase of intracellular calcium concentration” and the “luminescence (intracellular calcium ion increase) in kidney” value [13, 15] was “luminescence was observed”.
